Consider one compound from paper PMC6410202, “Dual Action of the PN159/KLAL/MAP Peptide: Increase of Drug Penetration across Caco-2 Intestinal Barrier Model by Modulation of Tight Junctions and Plasma Membrane Permeability” (Pharmaceutics, 2019).

In series [1] the test system is Caco-2 epithelial cells. Put plainly: MTT assay, Caco-2 cell viability. The note with it: 1-h treatment. The format is cell-based, human. The protocol:
The human Caco-2 intestinal epithelial cell line was purchased from ATCC (cat.no. HTB-37). Caco-2 cells were grown in DMEM/HAM’s F-12 culture medium with stable glutamine (Life Technologies, Gibco, Carlsbad, CA, USA) supplemented with 10% fetal bovine serum (Life Technologies, Gibco, Carlsbad, CA, USA and 50 μg/mL gentamycin in a humidified incubator with 5% CO2 at 37 °C. All plastic surfaces were coated with 0.05% rat tail collagen in sterile distilled water before cell seeding.
The PN159 peptide stock solution (5 mM) was prepared freshly in sterile DMSO. Treatment solutions were further diluted in Ringer-Hepes (150 mM NaCl, 6 mM NaHCO3, 5.2 mM KCl, 2.2 mM CaCl2, 0.2 mM MgCl2, 2.8 mM D-glucose, 5 mM Hepes; pH 7.4) or cell culture medium. Final concentrations of the peptide in treatment solutions were as follows: 1, 3, 10, 30 and 100 µM for cell viability assays; 1, 3, 10 and 30 µM for the barrier integrity assays and 10 µM for the recovery measurements.
For the cell viability assays Caco-2 epithelial cells were seeded to 96-well plates at the density of 6 × 10^3 cells/well (Orange Scientific) and cultured for 3-5 days. Confluent cultures were treated with PN159 peptide (1, 3, 10, 30 and 100 μM) in phenol red free DMEM (Life Technologies, Gibco, Carlsbad, CA, USA) for 1-h. This viability assay was performed at three different time points: (i) immediately after the 1-h treatment, (ii) at one-day recovery, (iii) at one-week recovery. To determine 100% toxicity, cells were incubated with 1 mg/mL Triton X-100 detergent. After treatment the medium was changed and 0.5 mg/mL MTT (3-(4,5-dimethyltiazol-2-yl)-2,5-diphenyltetrazolium bromide) solution was added to the cells for 3 h. During the incubation cells were kept in a CO2 incubator. The metabolic activity of cells is reflected by the conversion of the yellow MTT dye to purple formazan. Formazan crystals were dissolved in DMSO and the amount of converted dye was determined by measuring absorbance at 595 nm wavelength with a microplate reader (Fluostar Optima, BMG Labtechnologies, Ortenberg, Germany). Cell viability and/or metabolic activity was calculated as percentage of dye conversion by non-treated cells.
On the technique in general: Tetrazolium assays rely on reduction of a dye to a coloured formazan, in cell work by metabolically active cells.

For series [2], the system named is Caco-2 cells. The series is described as follows: Transmission electron microscopy of tight junctions. The format is cell-based, human. The note with it: 30 min. The protocol: Cells grown on culture inserts were treated with 10 μM PN159 peptide for 30 min and fixed immediately after treatment or after a 1-day recovery. Cells were briefly washed with phosphate-buffered saline (PBS) and fixed with 3% paraformaldehyde containing 0.5% glutaraldehyde in cacodylate buffer (pH 7.4) for 30 min at 4 °C. After washing with the buffer several times, cells were postfixed in 1% OsO4 for 20 min. Following a rinse with distilled water, the cells were block stained with 1% uranyl acetate in 50% ethanol for 20 min, dehydrated in graded ethanol and after the last step of dehydration inserts were placed in the 1:1 mixture of ethanol and Taab 812 (Taab; Aldermaston, Berks, UK) for 10 min at 30°C. Finally, the membranes of the culture inserts with the cells were removed from their support and embedded in Taab 812. Polymerization was performed overnight at 60°C. Ultrathin sections were cut perpendicularly for the membrane using a Leica EM UC6 ultramicrotome (Nussloch, Germany) and picked up on formvar-coated single-slot copper grids. […] Altogether, 105 non-overlapping images from the 3 groups at the same magnification were analyzed for the presence or absence of tight junctions (control group n = 28; PN159 group n = 42; recovery group n = 35).

The subject of series [3] is Caco-2 cells. Put plainly: Cellular uptake of Bodipy FL labeled PN159, confocal microscopy. It is filed as cell-based, human. The note with it: Bodipy FL labeled PN159, 10 µM, 5 min, claudin-4 immunostaining. The protocol: The Caco-2 cells were grown on glass bottomed petri dishes coated with collagen to visualize the cellular uptake of the Bodipy FL maleimide labeled (BODIPY FL N-(2-aminoethyl) maleimide, Thermo Fischer, Waltham, MA, USA) PN159 peptide. The cells were treated with peptide at concentrations of 1, 3 and 10 µM for 5 min. To stain the cell nuclei the H33342dye (1 μg/mL) was used before peptide treatment for 10 min. After peptide incubation the living cells were washed three times with Ringer–Hepes buffer supplemented with 1%fetal bovine serum (FBS) and examined immediately with a Visitron spinning disk confocal system.
In the case of the co-localization analysis the labeled PN159 peptide was used in 10 µM for 5 min. Then the cellular uptake cells were fixed and immunohistochemistry was performed for claudin-4. The samples were mounted and visualized by a Leica TCS SP5 confocal laser-scanning microscope.

The test system of series [4] is Enterobacter cloacae spp. cloacae (ATCC 13047). Put plainly: microbe, parasite or virus in culture. The note with it: Muller–Hinton broth, 18 h. On the procedure:
(§1) The MIC of PN159 on the 6 sensitive and resistant ESKAPE pathogenic strains was determined in cation-adjusted Muller–Hinton broth. […] Minimum inhibitory concentrations (MICs) were determined by using a standard serial broth dilution technique. Briefly, 11-step serial dilutions were prepared in 96-well microtiter plates with three biological replicates per strain. Pathogens were inoculated into each well at a density of 5×10^5 bacteria/mL, and the plates were incubated at 37 °C. Plates were shaken at 300 rpm during incubation for 18 h. Cell growth was monitored by measuring the optical density (OD600 value, Synergy 2 microplate reader BioTek Instruments Inc, Winooski, VT, USA). […] As reference compounds we tested the antimicrobial activity of three bactericidal drugs with different modes of action.

The subject of series [5] is Pseudomonas aeruginosa (ATCC 27853). The series is described as follows: microbe, parasite or virus in culture. The note with it: Muller–Hinton broth, 18 h. The protocol: as §1
In series [6] the test system is claudin-1. Details: method as in PMID 26869428. Particulars: affinity measurements; cited from earlier work.

With `CC(C)C[C@H](NC(=O)[C@H](C)NC(=O)[C@H](CCCCN)NC(=O)[C@H](CC(C)C)NC(=O)[C@H](C)NC(=O)[C@H](CC(C)C)NC(=O)[C@H](CCCCN)NC(=O)[C@H](CC(C)C)NC(=O)[C@H](C)NC(=O)[C@H](CC(C)C)NC(=O)[C@@H](N)CCCCN)C(=O)N[C@@H](CCCCN)C(=O)N[C@@H](C)C(=O)N[C@@H](C)C(=O)N[C@@H](CC(C)C)C(=O)N[C@@H](CCCCN)C(=O)N[C@@H](CC(C)C)C(=O)N[C@@H](C)C(N)=O` [PN159], the “Non-toxic concentration (MTT and impedance)” value in series [1] (Caco-2) was no more than 10 µM. For the same compound, the “Toxicity (MTT and impedance)” value in series [1] (PN159 30 μM) was “reversible”; in series [1] (PN159 100 μM) it was “toxic”. Besides, the “Reversibility of cytotoxic effect (MTT)” value in series [1] (PN159 100 μM, 1-day or 1-week recovery) was “not reversible after one day or even one week”. Moreover, the “Cell viability (MTT)” value in series [1] (PN159 1–10 μM, Caco-2) is “did not decrease cell viability”; in series [1] (PN159 30 and 100 μM, Caco-2) it was “cell damage”. Besides, in series [2] (1-day recovery after PN159 10 μM), the “Ultrastructure of epithelial junctions” value is “became similar to control cells”. In addition, the “Tight junctions by electron microscopy” value in series [2] (PN159 10 μM) is given as “no junctions were observed”. The “Co-localization with claudin-4” value in series [3] was “visible in the cytoplasm and also in the cell membrane at the level of intercellular junctions”. Besides, the MIC is listed as 31.0 µM in series [4] and 46.4 µM in series [5]. In series [6], the Binding entry is “in the micromolar range”.
